Patent US20230398130A1, “METHODS AND COMPOSITIONS FOR DIFFERENTIATING STEM CELLS” (Massachusetts Institute of Technology, priority 2020, published 2023)
Counter-ions that a name gives are not always drawn.

Experiments:
ISC-enriched organoids [1] = assay: Primary screen, 384-well 2.5-D organoid differentiation (ENR+CD, 6 days): carbachol-induced lysozyme secretion (LYZ.S); type: cell-based, murine; conditions: for Dose.FC.LYZ.S / Z.LYZ.S / SSMD.LYZ.S: primary screen; for Dose.FC.LYZ.S: FC vs plate median; for Z.LYZ.S: standard z score; for SSMD.LYZ.S: strictly standardized mean difference; for Dose.FC.LYZ.S (log 2 fold change, carbachol-induced lysozyme secretion): vs plate median
Text: (§1) High-throughput screening.

ISC-enriched organoids [2] = assay: Primary screen, 384-well 2.5-D organoid differentiation (ENR+CD, 6 days, Target Selective Inhibitor Library, vs whole-plate median): ATP (CellTiter-Glo 3D, CTG); conditions: for Dose.FC.CTG / Z.CTG / SSMD.CTG: primary screen; for Dose.FC.CTG: FC vs plate median; for SSMD.CTG: strictly standardized mean difference; for Dose.FC.CTG (log 2 fold change, ATP): vs plate median
ISC-enriched organoids [3] = assay: Primary screen, 384-well 2.5-D organoid differentiation (ENR+CD, 6 days): basal lysozyme secretion (LYZ.NS); type: cell-based, murine; conditions: for Dose.FC.LYZ.NS / Z.LYZ.NS / SSMD.LYZ.NS: primary screen; for Dose.FC.LYZ.NS: FC vs plate median; for SSMD.LYZ.NS: strictly standardized mean difference; for Dose.FC.LYZ.NS (log 2 fold change, basal lysozyme secretion): vs plate median
Text: as §1

[4] = dose 0.08 uM, standard z score of FC
[5] = dose 0.40 uM, standard z score of FC
[6] = dose 2.00 uM, standard z score of FC
[7] = dose 10.00 uM, standard z score of FC
[8] = 1st of the 4 dose lines of the treatment (dose not given)
[9] = 2nd of the 4 dose lines of the treatment (dose not given)
[10] = 3rd of the 4 dose lines of the treatment (dose not given)
[11] = 4th of the 4 dose lines of the treatment (dose not given)
[12] = Dose 10.00 uM, standard z score

Cc1cc([C@@H](C)Nc2ccccc2C(=O)O)c2nc(N3CCOCC3)cc(=O)n2c1 [AZD6482]
Dose.FC.LYZ.S (ISC-enriched organoids [1]; dose 0.08 uM, ENR+CD 6 days): 0.182 log 2 fold change
Dose.FC.LYZ.S (ISC-enriched organoids [1]; dose 0.40 uM, ENR+CD 6 days): 0.156 log 2 fold change
Dose.FC.LYZ.S (ISC-enriched organoids [1]; dose 2.00 uM, ENR+CD 6 days): −0.114 log 2 fold change
Dose.FC.LYZ.S (ISC-enriched organoids [1]; dose 10.00 uM, ENR+CD 6 days): −0.253 log 2 fold change
Dose.FC.CTG (ISC-enriched organoids [2]; dose 0.08 uM, ENR+CD 6 days): 0.240 log 2 fold change
Z.CTG (ISC-enriched organoids [2]; [4]): 0.572
Dose.FC.CTG (ISC-enriched organoids [2]; dose 0.40 uM, ENR+CD 6 days): 0.223 log 2 fold change
Z.CTG (ISC-enriched organoids [2]; [5]): 0.533
Dose.FC.CTG (ISC-enriched organoids [2]; dose 2.00 uM, ENR+CD 6 days): −0.509 log 2 fold change
Z.CTG (ISC-enriched organoids [2]; [6]): −1.215
Dose.FC.CTG (ISC-enriched organoids [2]; dose 10.00 uM, ENR+CD 6 days): −1.203 log 2 fold change
Z.CTG (ISC-enriched organoids [2]; [7]): −2.874
Dose.FC.LYZ.NS (ISC-enriched organoids [3]; dose 0.08 uM, ENR+CD 6 days): 0.108 log 2 fold change
Z.LYZ.NS (ISC-enriched organoids [3]; [4]): 0.944
Dose.FC.LYZ.NS (ISC-enriched organoids [3]; dose 0.40 uM, ENR+CD 6 days): 0.076 log 2 fold change
Z.LYZ.NS (ISC-enriched organoids [3]; [5]): 0.660
Dose.FC.LYZ.NS (ISC-enriched organoids [3]; dose 2.00 uM, ENR+CD 6 days): −0.130 log 2 fold change
Z.LYZ.NS (ISC-enriched organoids [3]; [6]): −1.129
Dose.FC.LYZ.NS (ISC-enriched organoids [3]; dose 10.00 uM, ENR+CD 6 days): −0.248 log 2 fold change
Z.LYZ.NS (ISC-enriched organoids [3]; [7]): −2.160

CCc1c2c(nc3ccc(OC(=O)N4CCC(N5CCCCC5)CC4)cc13)-c1cc3c(c(=O)n1C2)COC(=O)[C@]3(O)CC [Irinotecan HCl Trihydrate]
Z.LYZ.S (ISC-enriched organoids [1]; [8]): −0.261
Z.LYZ.S (ISC-enriched organoids [1]; [9]): −1.020
Z.LYZ.S (ISC-enriched organoids [1]; [10]): −1.895
Z.LYZ.S (ISC-enriched organoids [1]; [11]): −2.375
SSMD.LYZ.S (ISC-enriched organoids [1]; [8]): −0.311
SSMD.LYZ.S (ISC-enriched organoids [1]; [9]): −0.747
SSMD.LYZ.S (ISC-enriched organoids [1]; [10]): −1.550
SSMD.LYZ.S (ISC-enriched organoids [1]; [11]): −1.941
Z.CTG (ISC-enriched organoids [2]; Dose 0.08 uM, standard z score): −0.199
Z.CTG (ISC-enriched organoids [2]; Dose 0.40 uM, standard z score): −0.491
Z.CTG (ISC-enriched organoids [2]; Dose 2.00 uM, standard z score): −0.758
Z.CTG (ISC-enriched organoids [2]; [12]): −1.404
SSMD.CTG (ISC-enriched organoids [2]; [8]): −0.305
SSMD.CTG (ISC-enriched organoids [2]; [9]): −0.694
SSMD.CTG (ISC-enriched organoids [2]; [10]): −1.060
SSMD.CTG (ISC-enriched organoids [2]; [11]): −1.809
SSMD.LYZ.NS (ISC-enriched organoids [3]; [8]): −0.182
SSMD.LYZ.NS (ISC-enriched organoids [3]; [9]): −0.831
SSMD.LYZ.NS (ISC-enriched organoids [3]; [10]): −1.832
SSMD.LYZ.NS (ISC-enriched organoids [3]; [11]): −2.032

CC(C)c1onc(-c2c(Cl)cccc2Cl)c1COc1ccc(/C=C/c2cccc(C(=O)O)c2)c(Cl)c1 [GW4064]
Dose.FC.LYZ.S (ISC-enriched organoids [1]; Dose 0.08 uM): 0.028 log 2 fold change
Dose.FC.LYZ.S (ISC-enriched organoids [1]; Dose 0.40 uM): 0.097 log 2 fold change
Dose.FC.LYZ.S (ISC-enriched organoids [1]; Dose 2.00 uM): 0.000 log 2 fold change
Dose.FC.LYZ.S (ISC-enriched organoids [1]; Dose 10.00 uM): −0.071 log 2 fold change
Dose.FC.CTG (ISC-enriched organoids [2]; Dose 0.08 uM): −0.134 log 2 fold change
Z.CTG (ISC-enriched organoids [2]; Dose 0.08 uM, standard z score): −0.320
Dose.FC.CTG (ISC-enriched organoids [2]; Dose 0.40 uM): 0.140 log 2 fold change
Z.CTG (ISC-enriched organoids [2]; Dose 0.40 uM, standard z score): 0.334
Dose.FC.CTG (ISC-enriched organoids [2]; Dose 2.00 uM): −0.145 log 2 fold change
Z.CTG (ISC-enriched organoids [2]; Dose 2.00 uM, standard z score): −0.346
Dose.FC.CTG (ISC-enriched organoids [2]; Dose 10.00 uM): −0.157 log 2 fold change
Z.CTG (ISC-enriched organoids [2]; [12]): −0.375
Dose.FC.LYZ.NS (ISC-enriched organoids [3]; Dose 0.08 uM): 0.170 log 2 fold change
Z.LYZ.NS (ISC-enriched organoids [3]; Dose 0.08 uM, standard z score): 1.476
Dose.FC.LYZ.NS (ISC-enriched organoids [3]; Dose 0.40 uM): −0.022 log 2 fold change
Z.LYZ.NS (ISC-enriched organoids [3]; Dose 0.40 uM, standard z score): −0.194
Dose.FC.LYZ.NS (ISC-enriched organoids [3]; Dose 2.00 uM): 0.022 log 2 fold change
Z.LYZ.NS (ISC-enriched organoids [3]; Dose 2.00 uM, standard z score): 0.196
Dose.FC.LYZ.NS (ISC-enriched organoids [3]; Dose 10.00 uM): −0.059 log 2 fold change
Z.LYZ.NS (ISC-enriched organoids [3]; [12]): −0.516

COc1cc2c(Nc3ccc(NC(=O)c4ccccc4)cc3)ncnc2cc1OCCCN1CCOCC1 [ZM 447439]
Dose.FC.LYZ.S (log 2 fold change, carbachol-induced lysozyme secretion) (ISC-enriched organoids [1]; dose 0.08 uM): 0.171
Dose.FC.LYZ.S (log 2 fold change, carbachol-induced lysozyme secretion) (ISC-enriched organoids [1]; dose 0.40 uM): 0.108
Dose.FC.LYZ.S (log 2 fold change, carbachol-induced lysozyme secretion) (ISC-enriched organoids [1]; dose 2.00 uM): 0.074
Dose.FC.LYZ.S (log 2 fold change, carbachol-induced lysozyme secretion) (ISC-enriched organoids [1]; dose 10.00 uM): −0.132
Z.CTG (standard z score) (ISC-enriched organoids [2]; dose 0.08 uM): 1.222
Dose.FC.CTG (log 2 fold change, ATP) (ISC-enriched organoids [2]; dose 0.08 uM): 0.512
Z.CTG (standard z score) (ISC-enriched organoids [2]; dose 0.40 uM): 0.725
Dose.FC.CTG (log 2 fold change, ATP) (ISC-enriched organoids [2]; dose 0.40 uM): 0.304
Z.CTG (standard z score) (ISC-enriched organoids [2]; dose 2.00 uM): 0.552
Dose.FC.CTG (log 2 fold change, ATP) (ISC-enriched organoids [2]; dose 2.00 uM): 0.231
Z.CTG (standard z score) (ISC-enriched organoids [2]; dose 10.00 uM): −0.574
Dose.FC.CTG (log 2 fold change, ATP) (ISC-enriched organoids [2]; dose 10.00 uM): −0.240
Z.LYZ.NS (standard z score) (ISC-enriched organoids [3]; dose 0.08 uM): 0.896
Dose.FC.LYZ.NS (log 2 fold change, basal lysozyme secretion) (ISC-enriched organoids [3]; dose 0.08 uM): 0.103
Z.LYZ.NS (standard z score) (ISC-enriched organoids [3]; dose 0.40 uM): 0.932
Dose.FC.LYZ.NS (log 2 fold change, basal lysozyme secretion) (ISC-enriched organoids [3]; dose 0.40 uM): 0.107
Z.LYZ.NS (standard z score) (ISC-enriched organoids [3]; dose 2.00 uM): 0.456
Dose.FC.LYZ.NS (log 2 fold change, basal lysozyme secretion) (ISC-enriched organoids [3]; dose 2.00 uM): 0.052
Z.LYZ.NS (standard z score) (ISC-enriched organoids [3]; dose 10.00 uM): −0.695
Dose.FC.LYZ.NS (log 2 fold change, basal lysozyme secretion) (ISC-enriched organoids [3]; dose 10.00 uM): −0.080

O=C1NC(=O)/C(=C/c2ccc(-c3ccc(F)cc3O)o2)S1 [AS-252424]
Dose.FC.LYZ.S (ISC-enriched organoids [1]; dose 0.08 uM, ENR+CD 6 days): 0.072 log 2 fold change
Dose.FC.LYZ.S (ISC-enriched organoids [1]; dose 0.40 uM, ENR+CD 6 days): −0.008 log 2 fold change
Dose.FC.LYZ.S (ISC-enriched organoids [1]; dose 2.00 uM, ENR+CD 6 days): −0.074 log 2 fold change
Dose.FC.LYZ.S (ISC-enriched organoids [1]; dose 10.00 uM, ENR+CD 6 days): −0.022 log 2 fold change
Dose.FC.CTG (ISC-enriched organoids [2]; dose 0.08 uM, ENR+CD 6 days): 0.139 log 2 fold change
Z.CTG (ISC-enriched organoids [2]; [4]): 0.333
Dose.FC.CTG (ISC-enriched organoids [2]; dose 0.40 uM, ENR+CD 6 days): −0.074 log 2 fold change
Z.CTG (ISC-enriched organoids [2]; [5]): −0.176
Dose.FC.CTG (ISC-enriched organoids [2]; dose 2.00 uM, ENR+CD 6 days): −0.359 log 2 fold change
Z.CTG (ISC-enriched organoids [2]; [6]): −0.858
Dose.FC.CTG (ISC-enriched organoids [2]; dose 10.00 uM, ENR+CD 6 days): −0.204 log 2 fold change
Z.CTG (ISC-enriched organoids [2]; [7]): −0.487
Dose.FC.LYZ.NS (ISC-enriched organoids [3]; dose 0.08 uM, ENR+CD 6 days): 0.070 log 2 fold change
Z.LYZ.NS (ISC-enriched organoids [3]; [4]): 0.609
Dose.FC.LYZ.NS (ISC-enriched organoids [3]; dose 0.40 uM, ENR+CD 6 days): −0.042 log 2 fold change
Z.LYZ.NS (ISC-enriched organoids [3]; [5]): −0.368
Dose.FC.LYZ.NS (ISC-enriched organoids [3]; dose 2.00 uM, ENR+CD 6 days): −0.080 log 2 fold change
Z.LYZ.NS (ISC-enriched organoids [3]; [6]): −0.695
Dose.FC.LYZ.NS (ISC-enriched organoids [3]; dose 10.00 uM, ENR+CD 6 days): −0.077 log 2 fold change
Z.LYZ.NS (ISC-enriched organoids [3]; [7]): −0.671
